Measurements taken from patent publication US20020028804A1, “Cosmetic compositions containing substituted iminodibenzyl or fluorene derivatives” (Unilever Home & Personal Care USA, Division of Conopco, Inc., priority 2000, published 2002).
Where “and” joins values, the source holds several entries; their conditions need not be identical. Equal entries are not always repeated. Where two headings read alike, the source gives them in different places.

Tested on: human sebocytes
Assay: Sebum suppression: 14C-acetate incorporation in cultured human sebocytes
Type: cell-based
Details: for activity at 10 µM / activity at 100 µM / activity at 1 µM / activity at 0.1 µM: Homo sapiens
Method: Compounds A through H were tested for their potential to suppress sebum expression, alone or in the presence of a retinoid.
Secondary cultures of human sebocytes obtained from an adult […] were grown in 48-well tissue culture plates (Costar Corp.; Cambridge, Mass.) or 96-well tissue culture plates (Packard Co.; Meriden, Conn.) until confluent. Sebocyte growth medium consisted of Clonetics Keratinocyte Basal Medium (KBM) supplemented with 14 μg/ml bovine pituitary extract, 0.4 μg/ml hydrocortisone, 5 μg/ml insulin, 10 ng/ml epidermal growth factor, 1.2×10−10 M cholera toxin, 100 units/ml penicillin, and 100 μg/ml streptomycin. All cultures were incubated at 37° C. in the presence of 7.5% CO2. Medium was changed three times per week.
On the day of experimentation, the growth medium was removed and the sebocytes washed three times with sterile Dulbecco's Modified Eagle Medium (DMEM; phenol red free). Fresh DMEM was added to each sample (duplicates, triplicates, or quadruplicates depending on the experiment) with 5 microliter of test agent solubilized in ethanol either alone or in the presence of one or 10 micromolar of retinol. Controls consisted of addition of ethanol alone, retinol alone, or phenol red, which has estrogen-like activity and is included as a positive control.
Each plate was returned to the incubator for 20 hours followed by the addition of 14C-acetate buffer (5 mM final concentration, 56 mCi/mmol specific activity). Sebocytes were returned to the incubator for four hours after which each culture was rinsed three times with phosphate buffered saline to remove unbound label. Radioactive label remaining in the sebocytes was harvested and counted using a Beckman scintillation counter.

[1] = 10 μM test compound alone, read-out: % of Control
[2] = 100 μM test compound + 10 μM Retinol, read-out: % of Control
[3] = 100 μM test compound alone, read-out: % of Control
[4] = 1 μM test compound + 1 μM Retinol, read-out: % of Control
[5] = 1 μM test compound + 10 μM Retinol, read-out: % of Control
[6] = 1 μM test compound alone, read-out: % of Control
[7] = 100 μM test compound + 1 μM Retinol, read-out: % of Control
[8] = 1 μM test compound + 10 μM Retinol
[9] = 0.1 μM test compound + 1 μM Retinol, read-out: % of Control
[10] = 0.1 μM test compound + 10 μM Retinol, read-out: % of Control
[11] = 0.1 μM test compound alone, 14C-acetate label remaining in sebocytes, 20 h + 4 h, read-out: % of Control
[12] = 10 μM test compound + 1 μM Retinol, read-out: % of Control
[13] = 10 μM test compound + 10 μM Retinol
[14] = 10 μM test compound + 10 μM Retinol, read-out: % of Control

SMILES | % of Control (1 μM test compound alone, 1 µM) | activity at 10 µM [1] | activity at 100 µM [2] | activity at 100 µM [3] | activity at 1 µM [4] | activity at 1 µM [5] | activity at 1 µM [6] | activity at 100 µM [7] | activity at 10 µM [12] | other results
O=C(CC1c2ccccc2-c2ccccc21)N1CCC(O)(c2ccccc2)CC1 [Compound G] | 70.7% | 67.7% | 0.6% | 2% |  |  |  |  |  | 
O=C(Nc1ccc(OC(F)(F)F)cc1)N1c2ccccc2CCc2ccccc21 [Compound B] |  | 89.4% | 0.6% | 1.7% | 104% | 65.7% | 94.1% | 0.8% |  | 
CC1=C(/C=C/C(C)=C/C=C/C(C)=C/CO)C(C)(C)CCC1 [Retinol, retinol, reference compound] |  |  |  |  |  |  |  |  |  | % of Control (1 μM Retinol alone (control)): 98.1%; % of Control (10 μM Retinol alone (control)): 105.8%; activity at 1 µM (1 μM Retinol alone (control)): 96.5%
CC(O)c1cccc(NC(=O)N2c3ccccc3CCc3ccccc32)c1 (stereo not shown) [Compound A] |  | 91.3% | 0.6% | 2.1% | 82.8% | 93.2% | 85.7% | 1% |  | 
O=C(Nc1ccc(O)cc1)N1c2ccccc2CCc2ccccc21 [Compound C] | 66.4% | 56.1% |  |  |  |  |  |  | 37.4% | % of Control [8]: 48.5%; activity at 0.1 µM [9]: 95.1%; activity at 0.1 µM [10]: 84.6%; activity at 0.1 µM [11]: 103%; sebum suppressive activity when combined with retinol (in the presence of retinol / a retinoid, versus compound alone): improved activity
O=C(CC1c2ccccc2-c2ccccc21)N1CCC(O)(c2ccc(Cl)cc2)CC1 [Compound F] | 90.2% |  |  |  |  |  | 72.3% |  |  | % of Control [13]: 27.0%; activity at 0.1 µM [9]: 92.8%; activity at 0.1 µM [10]: 83.6%; activity at 0.1 µM [11]: 95.8%; activity at 10 µM [14]: 16.7%
CC1=C(Cl)CCC=C1NC(=O)N1c2ccccc2CCc2ccccc21 [Compound D] |  | 82.7% | 0.5% | 1.8% |  | 74.6% | 77.6% | 1.1% | 97.1% | % of Control (1 μM test compound + 1 μM Retinol): 96.9%; activity at 10 µM [14]: 76.8%
CCCN(CCO)C(=O)CC1c2ccccc2-c2ccccc21 [Compound H] | 74.8% and 102.7% |  | 27.2% | 79.8% | 86.4% |  |  | 67.6% | 76.6% | % of Control [8]: 72.8% and 99.9%; % of Control [13]: 80.2% and 100.4%; % of Control (10 μM test compound alone, 10 µM): 74.6% and 111.7%; % of Control (100 μM test compound + 10 μM Retinol): 44.4%; % of Control (100 μM test compound alone, 100 µM): 73.6%
O=S1(=O)OC(c2ccc(O)cc2)(c2ccc(O)cc2)c2ccccc21 [Phenol Red, phenol red, reference compound] |  |  |  |  |  |  |  |  |  | % of Control (28 μM Phenol Red (positive control)): 95.3% and 74.7%; % of Control (280 μM Phenol Red (positive control)): 15.9%
